Earlier results, collected in patent US20210153530A1, “FOOD PROTECTING COMPOSITION FOR MEAT, MEAT PRODUCTS AND DAIRY PRODUCTS” (priority 2018, published 2021).

How the values were obtained:
moulds and yeasts = conditions: raw pork, heat-treated and pasteurised
[1] = system: coliform microorganisms and arerobic spore-forming microorganisms; conditions: raw pork goulash, heat-treated

## N=C(N)N [guanidium]
Moulds and yeasts
  effect on growth of moulds and yeasts: has an effect on the growth
[1]
  influence on coliform and aerobic spore-forming microorganisms: not significantly influenced
